In article PMC9714921 (PLOS Pathogens, 2022):
Several values for one entry are separate records, joined by “and”; a condition that tells them apart may be missing. Equal entries are not always repeated. Entries after “also recorded” stand apart in the source; their conditions may differ. Where two headings read alike, the source gives them in different places.

Experiments:
Dme-ACR-16 = Dme-ACR-16 (Dracunculus medinensis, UniProt A0A0N4U0T6); assay: cell-based; assay type: cell-based
Procedure: (§1) cRNA for oocyte injection was prepared with the mMESSAGE mMACHINE T7 kit following manufacturers protocol (Ambion, USA). Concentration was determined using a Nanodrop spectrophotometer. Desired subunit combinations with associated accessory proteins were mixed and diluted with nuclease-free water to a final concentration of 250 ng/uL for each construct.
(§2) Adult female X. laevis oocyte extraction was performed in accordance with the McGill University Animal Use Protocol 2015–7758 following standard protocol. Briefly, frog ovary lobes were placed in a Ca^2+-free OR2 solution (82 mM NaCl, 2 mM KCl, 1 mM MgCl2, 5 mM HEPES buffer, pH 7.3) and manually divided into clusters of <10 oocytes with thin tweezers followed by a 90-minute incubation in 10 mg/mL collagenase type II (Sigma-Aldrich, USA). Oocytes were washed in Ca^2+-free OR2 and placed ND96 solution (NaCl 96 mM, KCl 2 mM, CaCl2 1.8 mM, MgCl2 1 mM and HEPES 5 mM, pH 7.3) supplemented with sodium pyruvate 2.5 mM [86] and incubated at 18°C until cRNA injection. Oocytes were injected with 50 nL (12.5 ng of each injected gene) of the desired cRNA subunit and accessory protein combination mix with the NanojectII (Drummond Scientific, USA). Following injection, oocytes were incubated in ND96 buffer at 18°C until electrophysiology. All electrophysiology was conducted two days post-injection, except for the expression analysis assay in which oocytes were measured every day after injection for three consecutive days.
(§3) All drugs were dissolved in recording solution (NaCl 100 mM, KCl 2.5 mM, CaCl2 1 mM, HEPES 5 mM, pH 7.3) to a stock concentration of 10 mM and diluted to their final recording concentrations. Oxantel and bephenium were first dissolved in DMSO to ensure a final recording concentration contained less than 0.1% DMSO. For agonist profiling, all drugs were diluted to a concentration of 100 μM.
(§4) Oocytes were placed individually in an RC3Z chamber (Harvard Apparatus, USA) submerged in recording solution (NaCl 100 mM, KCl 2.5 mM, CaCl2 1 mM, HEPES 5 mM, pH 7.3). The RC3Z chamber was connected to a perfusion system containing recording solution and ligand solutions. Pulled glass capillaries (World Precision Instruments, USA) were filled with 3M KCl and the tips clipped and checked for appropriate resistance (between 0.5 and 5 MΩ). A 3M KCl agar bridge grounded the oocyte bath chamber. Measurements were made using an Axon Axoclamp 900A amplifier with Digidata1550M. […] Ligand solutions were applied to the oocytes with an approximate flow rate of 1.2 m/s and current responses measured. Oocytes were exposed to the ligand solution until a distinct current peak was observed followed by a wash with the recording solution until current returned to baseline for a minimum of 10 seconds until the next ligand exposure. For BAPTA-AM exposed oocytes, oocytes were incubated in 100 μM BAPTA-AM for four hours prior to electrophysiology recording. Data was analyzed using Clampex 9.2 (Axon Instruments, USA) and statistical analysis and graphs produced in Prism (GraphPad version 9.1). T-tests were used to compare responses with error bars representing standard error. For concentration-response curves, individual oocyte current response to the different ligand concentrations were normalized to the response obtained with 300 μM. Data was fit using the Graphpad “log(agonist) vs normalized response–variable slope” equation, with 95% confidence intervals being reported. […] For examples of oocyte responses, recordings were filtered in Clampfit using the lowband pass at 40 Hz cutoff.

Bma-ACR-16 = assay type: cell-based, Brugia malayi
Procedure: as §1, §2, §3, §4

[1] = target: Asu-ACR-16-bmaICL chimera (Ascaris suum; Brugia malayi, UniProt A0A4E9FSR7+F1KYJ9); assay type: cell-based, A. suum (B. malayi ICL); settings: listed as acetylcholine
Procedure: B. malayi acr-16 and accessory proteins ric-3, unc-50, unc-74 and molo-1 were cloned from adult female B. malayi cDNA received as a gift from Dr. T. Geary using the primers described in S1 Table. B. malayi eat-18 was prepared from two overlapping oligonucleotide primers. Other subunits were synthesized from their predicted genome sequence (Gene Universal, USA) (S2 Table). […] All sequences were cloned into the pTD2 oocyte expression vector. Asu-ACR-16 and Tzc-ACR-16 chimeras were constructed using appropriate restriction enzymes, reciprocal exchange through ligation and confirmed by sequencing (McLab, USA).
as §1, §2
All drugs were dissolved in recording solution (NaCl 100 mM, KCl 2.5 mM, CaCl2 1 mM, HEPES 5 mM, pH 7.3) to a stock concentration of 10 mM and diluted to their final recording concentrations. […]
Oocytes were placed individually in an RC3Z chamber (Harvard Apparatus, USA) submerged in recording solution (NaCl 100 mM, KCl 2.5 mM, CaCl2 1 mM, HEPES 5 mM, pH 7.3). […] Ligand solutions were applied to the oocytes with an approximate flow rate of 1.2 m/s and current responses measured. […] Data was analyzed using Clampex 9.2 (Axon Instruments, USA) and statistical analysis and graphs produced in Prism (GraphPad version 9.1). […]

T. suis N-AChR = settings: read-out: EC50 μM ACh; accessory protein Ric-3; ref [34]; cited from earlier work
[2] = co-injected: Bma-ric-3 + Bma-eat-18
[3] = co-injected: Bma-ric-3 + Bma-molo-1
[4] = co-injected: Bma-ric-3 + Bma-unc-50 + Bma-unc-74
[5] = co-injected: Bma-ric-3 + Bma-unc-50 + Bma-unc-74 + Bma-eat-18
[6] = co-injected: Bma-ric-3 + Cel-emc-6
[7] = co-injected: Hco-ric-3, listed as acetylcholine
[8] = co-injected: Bma-ric-3 (reference condition)
[9] = co-injected: Bma-ric-3 + Cel-nra-2

Dme-ACR-16, sequence (A0A0N4U0T6 entry or part of it): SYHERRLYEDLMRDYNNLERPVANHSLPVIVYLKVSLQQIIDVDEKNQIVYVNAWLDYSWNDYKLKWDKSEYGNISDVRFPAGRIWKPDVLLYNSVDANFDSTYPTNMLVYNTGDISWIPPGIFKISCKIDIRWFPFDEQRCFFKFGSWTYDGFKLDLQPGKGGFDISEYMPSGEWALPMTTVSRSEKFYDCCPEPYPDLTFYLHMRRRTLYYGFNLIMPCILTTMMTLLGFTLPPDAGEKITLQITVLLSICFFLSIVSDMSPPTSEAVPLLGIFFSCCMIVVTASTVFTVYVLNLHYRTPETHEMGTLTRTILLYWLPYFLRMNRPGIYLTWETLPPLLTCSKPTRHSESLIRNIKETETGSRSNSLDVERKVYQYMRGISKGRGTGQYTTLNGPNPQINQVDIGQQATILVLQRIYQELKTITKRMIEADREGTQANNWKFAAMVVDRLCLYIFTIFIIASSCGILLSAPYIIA

CC(=O)OCC[N+](C)(C)C [ACh, acetylcholine]
EC50 (Dme-ACR-16): 12.8 µM
response to 100 μM acetylcholine normalized to Day 3 response (Dme-ACR-16; Day 1 post-injection): 49 ± 7%
response to 100 μM acetylcholine normalized to Day 3 response (Dme-ACR-16; Day 2 post-injection): 102 ± 7%
current response to 100 μM acetylcholine (Dme-ACR-16; No accessory protein): 1290 ± 70 nA
current response to 100 μM acetylcholine (Dme-ACR-16; No accessory protein, listed as acetylcholine): 1290 ± 70 (n=17) nA
current response to 100 μM acetylcholine (Dme-ACR-16; [2]): 2649 ± 112 (n=11) ns nA
current response to 100 μM acetylcholine (Dme-ACR-16; [3]): 2354 ± 108 (n=13) ns nA
current response to 100 μM acetylcholine (Dme-ACR-16; [4]): 2368 ± 105 (n=13) ns nA
current response to 100 μM acetylcholine (Dme-ACR-16; [5]): 2222 ± 62 (n=15) ns nA
current response to 100 μM acetylcholine (Dme-ACR-16; [6]): 2183 ± 87 (n=11) ns nA
current response to 100 μM acetylcholine (Dme-ACR-16; co-injected: Bma-ric-3 + Cel-nra-2 + Cel-nra-4): 2425 ± 133 (n=12) ns nA
current response to 100 μM acetylcholine (Dme-ACR-16; co-injected: Hco-ric-3): 2000–2200 nA
current response to 100 μM acetylcholine (Dme-ACR-16; [7]): 2150 ± 59 nA and 2150 ± 59 (n=15) ns nA
current response to 100 μM acetylcholine (Bma-ACR-16; No accessory protein): 0 ± 0 (n=12) nA
current response to 100 μM acetylcholine (Bma-ACR-16; [8]): no responses and 0 ± 0 (n=8) nA
current response to 100 μM acetylcholine (Bma-ACR-16; [2]): 0± 0 (n=10) nA
current response to 100 μM acetylcholine (Bma-ACR-16; co-injected: Bma-ric-3 + Bma-emc-6 + Cel-nra-2 + Cel-nra-4): 11 ± 9 nA
current response to 100 μM acetylcholine (Bma-ACR-16; co-injected: Bma-ric-3 + Bma-emc-6 + Cel-nra-2 + Cel-nra-4 + Bma-eat-18): 2 ± 1 nA
current response to 100 μM acetylcholine (Bma-ACR-16; co-injected: Bma-ric-3 + Bma-emc-6 + Cel-nra-2 + Cel-nra-4 + Bma-eat-18 + Bma-unc-50 + Bma-unc-74): 0 ± 0 nA
current response to 100 μM acetylcholine (Bma-ACR-16; co-injected: Bma-ric-3 + Bma-emc-6 + Cel-nra-2 + Cel-nra-4 + Bma-eat-18 + Bma-unc-50 + Bma-unc-74, listed as acetylcholine): 0 ± 0 (n=11) nA
current response to 100 μM acetylcholine (Bma-ACR-16; co-injected: Bma-ric-3 + Bma-emc-6 + Cel-nra-2 + Cel-nra-4 + Bma-eat-18, listed as acetylcholine): 2 ± 1 (n=12) ns nA
current response to 100 μM acetylcholine (Bma-ACR-16; co-injected: Bma-ric-3 + Bma-emc-6 + Cel-nra-2 + Cel-nra-4, listed as acetylcholine): 11 ± 9 (n=11) ns nA
current response to 100 μM acetylcholine (Bma-ACR-16; [3]): 0 ± 0 (n=16) nA
current response to 100 μM acetylcholine (Bma-ACR-16; [4]): 0 ± 0 (n=5) nA
current response to 100 μM acetylcholine (Bma-ACR-16; [5]): 0 ± 0 (n=13) nA
current response to 100 μM acetylcholine (Bma-ACR-16; [6]): 17 ± 4 nA and 17 ± 4 (n=13) nA
current response to 100 μM acetylcholine (Bma-ACR-16; [9]): 33 ± 9 nA
current response to 100 μM acetylcholine (Bma-ACR-16; co-injected: Bma-ric-3 + Cel-nra-2 + Cel-nra-4, listed as acetylcholine): 4 ± 2 nA and 4 ± 2 (n=12) nA
current response to 100 μM acetylcholine (Bma-ACR-16; co-injected: Bma-ric-3 + Cel-nra-2, listed as acetylcholine): 33 ± 9 (n=14) nA
current response to 100 μM acetylcholine (Bma-ACR-16; co-injected: Bma-ric-3 + Cel-nra-4): 31 ±13 nA
current response to 100 μM acetylcholine (Bma-ACR-16; co-injected: Bma-ric-3 + Cel-nra-4, listed as acetylcholine): 31 ± 13 (n=12) ns nA
current response to 100 μM acetylcholine (Bma-ACR-16; co-injected: Hco-ric-3): no measurable current; also recorded: no responses
current response to 100 μM acetylcholine (Bma-ACR-16; [7]): 0 ± 0 nA and 0 ± 0 (n=12) nA
current response to 100 μM acetylcholine ([1]; No accessory protein): 22 ± 4 (n=14) nA
current response to 100 μM acetylcholine [1, 8]: 3021 ± 444 nA and 3021 ± 128 (n=12) nA
current response to 100 μM acetylcholine [1, 9]: 2181 ± 99 (n=14) nA
EC50 (T. suis N-AChR): 14.5 ± 1.03 µM
